According to patent US10023841B2, “Methods and compositions for treating breast cancer with dendritic cell vaccines” (Baylor Research Institute, priority 2014, dated 2018):
The star is where a group is joined. Cbz = O=C(OCc1ccccc1)*; CH2F = FC*

Legend:
TAK1 [1] = molecular target: T1, TAK1 (Homo sapiens, UniProt O43318); experiment: Caspase-1 activity (FACS) in monocytes treated with cancer-culture sups; format: cell-based; details: monocytes treated with cancer-culture sups 16 hours; 200 nm TAK1 inhibitor
T1 construct: endogenous in cells; host or cells: human blood monocytes, monocyte-derived DCs and blood mDCs
T1 sequence (O43318 1-606): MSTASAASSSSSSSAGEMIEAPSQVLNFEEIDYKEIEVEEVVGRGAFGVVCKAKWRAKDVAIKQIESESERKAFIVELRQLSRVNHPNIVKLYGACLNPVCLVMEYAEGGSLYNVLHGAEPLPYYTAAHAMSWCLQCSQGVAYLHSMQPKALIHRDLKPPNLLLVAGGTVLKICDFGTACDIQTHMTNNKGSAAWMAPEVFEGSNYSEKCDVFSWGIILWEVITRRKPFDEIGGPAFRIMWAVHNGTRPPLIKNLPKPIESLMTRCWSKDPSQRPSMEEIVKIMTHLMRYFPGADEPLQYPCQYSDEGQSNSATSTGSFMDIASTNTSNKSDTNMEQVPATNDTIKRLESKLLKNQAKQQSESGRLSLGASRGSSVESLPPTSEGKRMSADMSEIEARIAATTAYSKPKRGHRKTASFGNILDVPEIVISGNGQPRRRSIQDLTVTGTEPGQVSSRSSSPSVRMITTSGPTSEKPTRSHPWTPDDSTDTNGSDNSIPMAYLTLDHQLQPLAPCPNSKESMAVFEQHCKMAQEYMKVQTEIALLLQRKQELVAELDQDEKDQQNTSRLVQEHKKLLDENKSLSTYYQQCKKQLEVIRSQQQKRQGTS
Experimental: For surface staining, cells were incubated with the antibodies for 30 minutes at 4° C. in the dark, then washed three times and fixed with 1% paraformaldehyde to be analyzed in a FACS Canto (Becton Dickinson). […] For caspase-1 staining, cells were incubated with substrates (CaspaLux-E1D2, Oncolmmunin, Inc.) for 50 minutes at 37° C. and washed with washing buffer 2 times, then stained for surface markers for 10 minutes at room temperature.
Monocytes were treated with cancer-culture sups for 16 hours in the presence of a TAK1 specific inhibitor or DMSO as control. Caspase-1 activity was measured using the FACS based method. Cells were gated based on CD11c^+ viable cells.

TAK1 [2] = molecular target: T1, TAK1; experiment: IL-1β in co-culture of cancer cells and myeloid cells upon TAK1 inhibition; format: cell-based
Experimental: When mDCs were co-cultured with MDA-MB231 cells for 5-90 minutes, phosphorylated (p)TAK1 could only be detected after 60 minutes (FIG. 7D). To confirm that the phosphorylation of TAK1 is TGF-β mediated, TGF-β signaling blocking reagents (TGF-β neutralizing antibody and TGF-βR kinase inhibitor) were added to the co-culture of cancer cells and mDCs. […] To examine whether TAK1-signaling participate in modulation of IL-1β production, a co-culture of cancer cells and myeloid cells was used. […]

[3] = tested on: Hs-578t breast cancer cells; experiment: Tumor growth of Hs-578t xenograft in irradiated NOD/SCID/β2m−/− mice reconstituted with DCs and T cells; format: in vivo
Experimental: (§1) NOD/SCID/β2 m^−/− mice ([…]) were sublethally irradiated (12 cGy/g body weight of 137Cs γ irradiation) the day before tumor implantation. Then 10 million Hs-578t breast cancer cells harvested from cultures were injected subcutaneously into the flanks. Mice were then reconstituted with 1 million monocyte-derived DCs (MDDCs) and autologous T cells. CD4^+ and CD8^+ T cells were positively selected from thawed PBMCs using magnetic selection according to the manufacturer's instructions (Miltenyi Biotec). The purity was routinely >90%. 10 million CD4^+ T cells and 10 million CD8^+ T cells were transferred at days 3, 6, and 9 after tumor implantation. MDDCs were generated from the adherent fraction of PBMCs by culturing with 100 ng/ml GM-CSF and 10 ng/ml IL-4 (R&D Systems). Anakinra (2 mg/kg body weight) or PBS were injected daily in peritumor area since day 3 after tumor engraftment. 200 ug TSLPR blocking antibody was given on day 3,6,9. In some experiments, TGF-13 blocking antibody was given on day 3,6,9. Tumor size was monitored every 2-3 d. Tumor volume (ellipsoid) was calculated as follows: ([short diameter]^2×long diameter)/2. On day 16, the tumors were harvested. In some experiments, only one time DCs and total T cells transfer was done. Cell suspension was obtained from breast cancer tissue of above mice. Cell suspensions were obtained by digestion with 2.5 mg/ml of collagenase D (Roche Diagnostics, Indianapolis, Ind.), and 200 U/ml of DNAse I (Sigma-Aldrich, St. Louis, Mo.) for 30 minutes at 37° C. Washed three times and analyzed with FACS-CantoII (Becton Dickinson).
Thus, involvement of IL-1β in the TSLP-dependent in vivo model was evaluated. The availability of IL-1β in the xenograft mice model was first evaluated. HS-578t cells were injected subcutaneously into the flank of irradiated NOD/SCID/β2 m^−/− mice. MDDCs plus autologous total T cells were injected intratumorally on D3,6, and 9 after tumor cells injection (FIG. 15A). When tumors grew to 100-150 mm^3 in volume, mice were sacrificed and tumors were frozen in OCT for tissue staining. Similar with what observed in patient primary tumors (FIG. 5), IL-1β^+ cells also infiltrated in the tumor of xenograft model (FIG. 15B). […] Then we tried to understand whether TGF-β or IL-1β blocking could affect tumor growth through affecting the availability of IL-1β. Anti-TGF-β neutralizing antibody, isotype antibody as control, IL-1R antagonist Anakinra, or anti-TSLPR neutralizing antibody were each injected together with DC plus T cells (FIG. 15A). […] In some experiments, small pieces of tumor tissue from mice were cultured for 16 hours in the presence of PMA and ionomycin. Th2 cytokines were measured by Luminex in the culture sups (FIG. 8B).

Th2 cytokines = experiment: Cytokines by Luminex in supernatants of day 16 mouse tumor fragments stimulated with PMA and ionomycin; format: in vivo, mice; details: day 16 tumors; versus PBS group
Experimental: as §1
Thus, involvement of IL-1β in the TSLP-dependent in vivo model was evaluated. The availability of IL-1β in the xenograft mice model was first evaluated. HS-578t cells were injected subcutaneously into the flank of irradiated NOD/SCID/β2 m^−/− mice. MDDCs plus autologous total T cells were injected intratumorally on D3,6, and 9 after tumor cells injection (FIG. 15A). […] Th2 cytokines were measured by Luminex in the culture sups (FIG. 8B).

CD4^+CD3^+T cells = experiment: Intracellular cytokine FACS of CD4+CD3+ T cells from xenograft tumors; format: in vivo, mice
Experimental: as §1
To confirm whether the decreased IL-13 level is due to less infiltration of IL-13 producing cells, single cell suspensions were prepared from the tumors harvested from both the PBS and the Anakinra treatment groups. Intracellular staining for cytokines including IL-13, IL-4, TNF-α, and IFN-γ were combined with CD4, CD3 surface staining. Cells were analyzed by FACS, and gated on viable CD4^+CD3^+T cells. […] In the PBS group, about 10.2-46.4% of CD4^+CD3^+T cells express IL-13. […]

[4] = pediatric patients with SOJIA; cited from earlier work
[5] = 100 mg daily SC; cited from earlier work
caspase-1 = molecular target: T2, caspase-1 (Homo sapiens, UniProt P29466); experiment: MDA-MB231/mDC co-culture with caspase-1 inhibitor: proIL-1β and mature IL-1β staining; format: cell-based
T2 construct: MDA-MB231 cells and mDCs were co-cultured in chamber well; endogenous in cells; host or cells: human blood mDCs co-cultured with MDA-MB231 cells
T2 sequence (P29466 120-297 limits assumed): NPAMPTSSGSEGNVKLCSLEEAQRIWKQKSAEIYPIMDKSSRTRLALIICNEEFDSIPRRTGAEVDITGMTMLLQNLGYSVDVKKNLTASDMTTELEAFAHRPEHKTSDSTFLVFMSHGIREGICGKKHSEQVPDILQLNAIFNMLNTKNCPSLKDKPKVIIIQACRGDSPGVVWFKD
T2 sequence (P29466 317-404 limits assumed): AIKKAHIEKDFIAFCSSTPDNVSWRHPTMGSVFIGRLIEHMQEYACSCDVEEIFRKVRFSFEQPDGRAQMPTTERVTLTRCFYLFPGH
Experimental: In most cases, caspase-1 is needed for proteolytic cleavage and secretion of mature IL-1β. It was tested whether TGF-β-dependent IL-1β production also required the activation of caspase-1. MDA-MB231 cells and mDCs were co-cultured in chamber well in presence of 1 uM of caspase-1 inhibitor or DMSO as vehicle control. 18 hours later, cells were fixed and stained with specific antibody against pro-peptide of IL-1β (FIG. 7A), or mature IL-1β (FIG. 7B), both accompanied with HLA-DR staining. […] Four areas were counted for the percentage of proIL-1β^+ cells within HLA-DR^+ cells for both DMSO or caspase-1 inhibitor treated wells. Almost 95% of mDCs show accumulation of proIL-1β intracellularly, while only around 50% of mDCs express proIL-1β (FIG. 7A right panel). Using a similar experimental system, mature IL-1β production in presence or absence of caspase-1 inhibitor was also measured.

[6] = tested on: HS-578t or MDA-MB231 cells; experiment: TSLP induction in breast cancer cell lines by cytokines (real-time PCR, Luminex); format: cell-based, human; details: for TSLP mRNA level by quantitative real-time PCR: HS-578t and MDA-MB231 cells, 10 ng/ml, as early as 2 hours
Experimental: […] For tumor cells and mDCs coculture experiment, 100 k tumor cells were seeded in 24 well plate to grow overnight, then media was refreshed and 100 k mDCs were added to coculture for another 24-72 h. For the transwell experiment, 24-well-plate with inserts were used (Corning). 200K tumor cells were seeded in the plate to grow at least overnight, then 200 k mDCs were added into inserts. After 48 h of co-culture, supernantants were harvested to determine IL-1β level by ELISA (Duoset, R&D System).
Samples were treated and lysed with Buffer RLT, and then stored at −80° C. until RNA extraction. Total RNA was isolated and purified from each sample by using RNeasy kit and RNase-free DNase (Qiagen) according to the manufacturer's instructions. cDNA was generated from total RNA with iScript™ cDNA Synthesis Kit. The resulting cDNA was then used for quantitative gene expression analysis on a Sequence Detection System 7,500 (Applied Biosystems). The primers used were as follows: human (h)TSLP, 5′-[…]-3′ (SEQ ID NO:41) and 5′-[…]-3 (SEQ ID NO:42), and human (h)IL-1β, 5′-[…]-3′ (SEQ ID NO:43) and 5′-[…]-3′ (SEQ ID NO:44), human (h) GAPDH, 5′-[…]-3′ (SEQ ID NO:45) and 5′-[…]-3′ (SEQ ID NO:46), human (h) ABL1, 5′-[…]-3′ (SEQ ID NO:47) and 5′ […]-3′ (SEQ ID NO:48), human (h) PGK1, 5′-[…]-3′ (SEQ ID NO:49) and 5′-[…]-3′ (SEQ ID NO:50), human (h) PES1, 5′-[…]-3′ (SEQ ID NO:51) and 5′-A […]-3′ (SEQ ID NO:52). Equal amounts of cDNA were used with the iTaq SYBR Green Supermix with ROX (Bio-Rad) and primer mix according to the real-time PCR protocols supplied by the manufacturer. Amplification efficiencies were validated against the housekeeping gene, GAPDH, PES1, and ABL1. […] The relative quantification of target gene expression was done by the comparative cycle threshold (CT) method. […]
Different pro-inflammatory cytokines have the potential to induce TSLP from keratinocytes, both transcriptionally and translationally. […] Cells were harvested and TSLP mRNA levels were measured by quantitative real-time PCR (FIG. 4A). […] TSLP levels in the culture supernatants were determined by Luminex. […]

[7] = xenograft model, summary statement
[8] = tumors harvested from Anakinra treatment group

COc1cc(O)c2c(c1)/C=C/C[C@H](O)[C@H](O)C(=O)/C=C\C[C@H](C)OC2=O [TAK1 inhibitor, 5z-7-oxozeaenol]
activation of caspase-1 in monocytes (TAK1 [1]): prevented the activation of caspase-1
IL-1β levels in co-culture supernatants (Luminex) (TAK1 [2]; cancer cells with monocytes, MDDC or mDC, 48 hours): Substantially lower amounts of IL-1β were secreted
expression of IL-1β by mDCs and monocytes (intracellular staining) (TAK1 [2]; co-culture 16 hours): prevented the expression of IL-1β by mDCs and monocytes

Anakinra: recombinant soluble non-glycosylated homolog of the human interleukin-1 receptor antagonist (IL-1Ra)
tumor volume (mean) ([3]; day 16, Anakinra 2 mg/kg daily peritumoral since day 3): 13 mm^3
tumor volume increase in PBS group compared to the Anakinra group ([3]; end of the observation, day 16): ~10 fold
OX40L+ expression on DCs ([3]; in vivo): blocks OX40L+ expression on DCs
tumor growth in vivo [3, 7]: prevents tumor growth in vivo
IL-4 in tumor tissue culture sups (Th2 cytokines): less IL-4
IL-13 in tumor tissue culture sups (Th2 cytokines): less IL-13
TSLP production in tumor tissue (Th2 cytokines): less TSLP production
CD4^+CD3^+T cells expressing IL-13 (CD4^+CD3^+T cells; [8]): 0.39-2.5%
effect on TNF-α and IFN-γ in CD4^+CD3^+T cells (CD4^+CD3^+T cells; [8]): no specific effect on TNF-α and IFN-γ
iTh2 generation in vivo (CD4^+CD3^+T cells; [7]): blocks iTh2 generation in vivo
patients with remarkable clinical and hematological responses [4]: > 70 % of patients
most common adverse reaction [5]: injection site reaction
safety profile [5]: favorable safety profile

Cbz-WEHD-CH2F [caspase-1 inhibitor]
percentage of proIL-1β+ cells within HLA-DR+ cells (caspase-1; 1 uM caspase-1 inhibitor, MDA-MB231 cells and mDCs co-cultured 18 hours): ~95%
mature IL-1β staining (caspase-1; caspase-1 inhibitor, MDA-MB231 cells and mDCs co-culture): less mature IL-1β was detected

IL-1β: cytokine obtained from R&D
TSLP mRNA level by quantitative real-time PCR [6]: induce significant TSLP transcription
TSLP levels in the culture supernatants (Luminex) ([6]; MDA-MB231 cells, different doses, 48 hours): induce TSLP production in a dose-dependent manner

B1: IL-1α: cytokine obtained from R&D (protein, UniProt P01583 113-271, looked up)
Interleukin-1 alpha: SAPFSFLSNVKYNFMRIIKYEFILNDALNQSIIRANDQYLTAAALHNLDEAVKFDMGAYKSSKDDAKITVILRISKTQLYVTAQDEDQPVLLKEMPEIPKTITGSETNLLFFWETHGTKNYFTSVAHPNLFIATKQDYWVCLAGGPPSITDFQILENQA
TSLP mRNA level by quantitative real-time PCR [6]: induce significant TSLP transcription
